# Where two headings read alike, the source gives them in different places.
# Tests used:
# Assay type in all cases: biochemical
# [1] = biological target: p110β/p85α (Homo sapiens (Human), UniProt P42338); assay: PI 3-Kinase (human) HTRF assay, p110β/p85α
# [2] = biological target: p110α/p85α (Homo sapiens (Human), UniProt P42336); assay: PI 3-Kinase (human) HTRF assay, p110α/p85α
# [3] = biological target: p110γ (Homo sapiens (Human), UniProt P48736); assay: PI 3-Kinase (human) HTRF assay, p110γ
# [4] = in vitro, read-out: PI3K β IC50
# [5] = in vitro, read-out: PI3K α IC50
# [6] = in vitro, read-out: PI3K γ IC50
# Chain of p110β/p85α (P42338 whole entry): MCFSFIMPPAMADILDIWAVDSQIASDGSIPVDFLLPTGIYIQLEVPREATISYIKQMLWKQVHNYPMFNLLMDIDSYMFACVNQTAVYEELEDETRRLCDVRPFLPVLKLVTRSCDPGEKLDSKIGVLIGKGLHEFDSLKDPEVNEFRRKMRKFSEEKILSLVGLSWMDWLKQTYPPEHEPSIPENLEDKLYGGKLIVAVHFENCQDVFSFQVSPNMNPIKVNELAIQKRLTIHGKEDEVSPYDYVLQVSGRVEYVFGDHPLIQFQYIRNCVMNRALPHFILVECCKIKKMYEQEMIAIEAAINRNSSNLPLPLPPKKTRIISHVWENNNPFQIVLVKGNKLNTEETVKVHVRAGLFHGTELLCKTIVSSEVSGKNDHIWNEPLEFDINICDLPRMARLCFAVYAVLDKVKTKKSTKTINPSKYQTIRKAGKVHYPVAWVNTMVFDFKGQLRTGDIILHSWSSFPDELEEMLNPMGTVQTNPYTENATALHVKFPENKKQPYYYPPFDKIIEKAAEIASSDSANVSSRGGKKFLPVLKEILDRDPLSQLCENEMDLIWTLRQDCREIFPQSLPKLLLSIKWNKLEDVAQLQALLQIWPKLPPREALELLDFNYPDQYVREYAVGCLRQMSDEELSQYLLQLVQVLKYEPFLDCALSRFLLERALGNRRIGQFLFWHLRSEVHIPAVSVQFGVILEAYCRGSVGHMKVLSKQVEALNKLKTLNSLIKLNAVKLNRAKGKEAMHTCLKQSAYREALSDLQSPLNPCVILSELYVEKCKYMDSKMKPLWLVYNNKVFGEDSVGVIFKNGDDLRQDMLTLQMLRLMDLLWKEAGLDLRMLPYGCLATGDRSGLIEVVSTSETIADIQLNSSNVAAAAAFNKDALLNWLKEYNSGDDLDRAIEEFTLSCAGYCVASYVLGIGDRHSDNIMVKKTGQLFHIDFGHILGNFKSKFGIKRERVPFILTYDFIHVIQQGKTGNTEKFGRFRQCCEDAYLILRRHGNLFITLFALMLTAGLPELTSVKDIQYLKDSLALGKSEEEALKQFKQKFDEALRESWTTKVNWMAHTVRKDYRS
# Chain of p110β/p85α (P27986 whole entry partner): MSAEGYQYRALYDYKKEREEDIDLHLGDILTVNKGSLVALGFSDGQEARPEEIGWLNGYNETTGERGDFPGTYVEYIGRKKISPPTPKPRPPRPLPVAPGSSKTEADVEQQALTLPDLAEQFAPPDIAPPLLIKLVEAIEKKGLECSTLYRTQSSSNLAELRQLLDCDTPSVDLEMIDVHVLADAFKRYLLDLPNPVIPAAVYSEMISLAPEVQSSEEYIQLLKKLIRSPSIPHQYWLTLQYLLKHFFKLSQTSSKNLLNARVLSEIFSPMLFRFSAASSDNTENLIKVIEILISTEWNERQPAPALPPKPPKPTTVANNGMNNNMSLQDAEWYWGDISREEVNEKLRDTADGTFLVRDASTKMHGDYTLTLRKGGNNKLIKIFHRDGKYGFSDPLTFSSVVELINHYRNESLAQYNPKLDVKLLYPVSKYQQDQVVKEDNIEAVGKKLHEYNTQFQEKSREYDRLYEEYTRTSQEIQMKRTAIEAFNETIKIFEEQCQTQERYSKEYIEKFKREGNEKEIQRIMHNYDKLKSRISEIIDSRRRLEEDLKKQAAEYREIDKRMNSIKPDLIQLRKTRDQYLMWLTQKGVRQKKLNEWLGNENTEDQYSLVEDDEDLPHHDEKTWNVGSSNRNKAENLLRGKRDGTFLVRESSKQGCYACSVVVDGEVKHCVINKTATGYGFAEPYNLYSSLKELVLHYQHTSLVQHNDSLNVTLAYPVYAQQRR
# Chain of p110α/p85α (P42336 whole entry): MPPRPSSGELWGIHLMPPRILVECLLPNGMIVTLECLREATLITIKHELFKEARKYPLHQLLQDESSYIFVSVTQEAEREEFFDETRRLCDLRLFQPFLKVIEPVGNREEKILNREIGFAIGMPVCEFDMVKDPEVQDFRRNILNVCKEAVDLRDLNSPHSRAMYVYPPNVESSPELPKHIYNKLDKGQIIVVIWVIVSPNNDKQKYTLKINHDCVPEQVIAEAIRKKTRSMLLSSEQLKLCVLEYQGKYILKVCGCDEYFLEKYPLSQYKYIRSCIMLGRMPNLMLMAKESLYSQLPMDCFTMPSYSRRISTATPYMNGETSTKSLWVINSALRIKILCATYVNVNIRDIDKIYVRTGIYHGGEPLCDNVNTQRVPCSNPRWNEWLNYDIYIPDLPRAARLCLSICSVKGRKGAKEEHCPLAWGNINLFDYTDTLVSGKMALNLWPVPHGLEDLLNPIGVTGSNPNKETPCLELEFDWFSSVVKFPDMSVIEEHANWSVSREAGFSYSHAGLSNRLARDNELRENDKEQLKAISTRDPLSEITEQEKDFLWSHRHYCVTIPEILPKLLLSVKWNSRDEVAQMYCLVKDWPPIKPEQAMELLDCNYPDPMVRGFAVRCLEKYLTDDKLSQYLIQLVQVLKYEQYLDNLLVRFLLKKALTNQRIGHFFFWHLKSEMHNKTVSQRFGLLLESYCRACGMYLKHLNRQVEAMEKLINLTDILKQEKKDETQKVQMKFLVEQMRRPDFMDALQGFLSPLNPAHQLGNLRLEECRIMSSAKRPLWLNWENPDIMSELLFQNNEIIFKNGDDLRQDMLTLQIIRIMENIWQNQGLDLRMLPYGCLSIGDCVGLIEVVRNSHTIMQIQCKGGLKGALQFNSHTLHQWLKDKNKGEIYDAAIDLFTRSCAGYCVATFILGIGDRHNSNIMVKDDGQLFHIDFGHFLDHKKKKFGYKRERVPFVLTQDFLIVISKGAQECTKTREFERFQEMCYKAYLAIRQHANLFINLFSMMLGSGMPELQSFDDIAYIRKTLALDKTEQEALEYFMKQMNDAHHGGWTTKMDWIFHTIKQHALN
# Chain of p110α/p85α (P27986 whole entry partner): as the sequence (P27986 whole entry partner) above
# Chain of p110γ (P48736 whole entry): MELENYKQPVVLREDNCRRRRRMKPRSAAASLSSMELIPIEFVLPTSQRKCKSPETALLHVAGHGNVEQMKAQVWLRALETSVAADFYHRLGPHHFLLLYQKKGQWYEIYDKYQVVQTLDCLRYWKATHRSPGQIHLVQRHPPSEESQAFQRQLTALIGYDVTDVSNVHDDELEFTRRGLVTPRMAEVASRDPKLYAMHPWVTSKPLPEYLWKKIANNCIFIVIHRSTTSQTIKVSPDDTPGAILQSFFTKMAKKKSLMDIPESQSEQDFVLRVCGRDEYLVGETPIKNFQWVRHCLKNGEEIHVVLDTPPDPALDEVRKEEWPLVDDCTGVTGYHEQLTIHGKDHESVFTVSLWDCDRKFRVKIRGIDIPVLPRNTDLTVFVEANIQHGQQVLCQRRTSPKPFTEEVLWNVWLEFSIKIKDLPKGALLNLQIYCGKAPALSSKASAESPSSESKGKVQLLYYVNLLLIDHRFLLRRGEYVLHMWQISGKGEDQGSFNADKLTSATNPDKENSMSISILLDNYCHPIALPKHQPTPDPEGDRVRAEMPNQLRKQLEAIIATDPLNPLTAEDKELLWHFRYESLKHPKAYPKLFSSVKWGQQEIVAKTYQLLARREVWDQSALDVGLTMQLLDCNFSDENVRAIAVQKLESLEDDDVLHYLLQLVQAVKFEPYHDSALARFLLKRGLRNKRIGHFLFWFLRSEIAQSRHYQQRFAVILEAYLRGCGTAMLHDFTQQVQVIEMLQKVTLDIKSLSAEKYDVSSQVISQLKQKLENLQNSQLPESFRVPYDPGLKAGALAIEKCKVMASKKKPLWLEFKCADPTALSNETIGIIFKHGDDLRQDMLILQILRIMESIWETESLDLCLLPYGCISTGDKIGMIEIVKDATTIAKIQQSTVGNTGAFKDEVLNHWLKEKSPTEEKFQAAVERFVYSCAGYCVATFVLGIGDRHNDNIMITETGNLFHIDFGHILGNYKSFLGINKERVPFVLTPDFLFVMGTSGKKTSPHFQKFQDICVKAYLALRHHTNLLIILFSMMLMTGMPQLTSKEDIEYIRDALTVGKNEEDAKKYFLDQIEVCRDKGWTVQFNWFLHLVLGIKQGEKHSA
"IC50 [2, 5] [µM]",IC50 ([2]; read-out: PI3K α In Vitro IC50) [µM],IC50 ([3]; read-out: PI3K γ In Vitro IC50) [µM],SMILES,other results
–,< 0.1,< 1,Nc1nc2cc(-c3ccc4ncc(C(=O)N5CC[C@H](N6CCOCC6)C5)n4c3)ccc2o1 [compound 465],–
–,< 0.1,< 0.1,Nc1nc2cc(-c3ccc4ncc(C(=O)N5CC[C@H](F)C5)n4c3)ccc2o1 [compound 476],–
–,< 10,< 10,CNc1noc2cc(-c3ccc4ncc(C(=O)N5CCOCC5)n4c3)ccc12 [compound 486],–
–,< 1,< 10,Nc1nc2cc(-c3ccc4ncc(C(=O)N5CCC(N6CC(F)(F)C6)C5)n4c3)ccc2o1 (stereo not drawn) [compound 498],–
–,< 1,< 10,Nc1nc2cc(-c3ccc4ncc(C(=O)N5CCC6(C5)OCCO6)n4c3)ccc2o1 [compound 499],–
–,< 1,< 10,Nc1nc2cc(-c3ccc4ncc(C(=O)N5CCC(F)(F)CC5)n4c3)ccc2o1 [compound 501],–
–,< 1,< 0.1,Nc1nc2cc(-c3ccc4ncc(C(=O)N5CCC(F)CC5)n4c3)ccc2o1 [compound 503],–
–,< 1,< 10,CC1(C)CN(C(=O)c2cnc3ccc(-c4ccc5oc(N)nc5c4)cn23)CCO1 [compound 513],–
–,< 1,–,CN1CC(n2cnc3ccc(-c4ccc5oc(N)nc5c4)cc3c2=O)C1 [compound 528],IC50 ([1]; read-out: PI3K β In Vitro IC50): < 10 µM

# Further lines, the molecule ahead of its results:
SMILES,"IC50 [2, 5] [µM]",IC50 ([2]; read-out: PI3K α In Vitro IC50) [µM],IC50 ([3]; read-out: PI3K γ In Vitro IC50) [µM],other results
Nc1nc2cc(-c3ccc4nnc(-c5cccnc5)n4c3)ccc2o1 [compound 300],< 10,–,–,"IC50 [1, 4]: < 10 µM"
Nc1nc2ccc(-c3ccc4nnc(-c5cccnc5)n4c3)cc2o1 [compound 301],< 10,–,–,"IC50 [1, 4]: < 10 µM"
C[C@H]1CN(c2cnc3ccc(-c4ccc5sc(N)nc5c4)cc3n2)CCN1 [compound 307],< 1,–,–,"IC50 [1, 4]: < 1 µM"
C[C@H]1CN(c2cnc3cccc(-c4ccc5nc(N)oc5c4)c3n2)CCN1 [compound 343],–,–,–,"IC50 [1, 4]: < 10 µM"
Cc1cc2oc(N)nc2cc1-c1ccc2ncc(N3CCN[C@@H](C)C3)nc2c1 [compound 351],< 10,–,–,"IC50 [1, 4]: < 1 µM"
Nc1nc2cc(-c3ccc4ncc(N5CC(N6CCOCC6)C5)nc4c3)c(Cl)cc2o1 [compound 371],< 1,–,–,"IC50 [1, 4]: < 10 µM"
CN1CCC(c2cnc3ccc(-c4ccc5oc(N)nc5c4)cc3n2)CC1 [compound 385],< 0.1,–,–,"IC50 [1, 4]: < 10 µM"
Nc1nc2cc(-c3ccc4ncc(N5CCNCC5=O)nc4c3)ccc2o1 [compound 389],< 1,–,–,"IC50 [3, 6]: < 10 µM"
CN1CCN(c2cnc3ccc(-c4ccc5oc(N)nc5c4)cc3n2)C(=O)C1 [compound 390],< 1,–,–,"IC50 [3, 6]: < 10 µM"
Nc1nc2cc(-c3ccc4ncc(N5CCN(CC(F)(F)F)CC5)nc4c3)ccc2o1 [compound 395],< 0.1,–,–,"IC50 [3, 6]: < 0.1 µM"
CNc1nc2cc(-c3ccc4ncc(C(=O)N5CCOCC5)n4c3)ccc2o1 [compound 406],–,< 10,–,IC50 ([1]; read-out: PI3K β In Vitro IC50): < 10 µM
O=C(c1cnc2ccc(-c3ccc4oc(Nc5ccccc5)nc4c3)cn12)N1CCOCC1 [compound 407],–,–,–,IC50 ([1]; read-out: PI3K β In Vitro IC50): < 10 µM
Cc1cc(-c2ccc3oc(N)nc3c2)cn2c(C(=O)N3CCOCC3)cnc12 [compound 448],–,< 1,< 10,–
O=C(c1cnc2ccc(-c3cccc(NS(=O)(=O)c4ccccc4)c3)cn12)N1CCOCC1 [compound 453],–,< 10,< 10,–
COc1ccc(-c2ccc3ncc(C(=O)N4CCOCC4)n3c2)cc1NS(=O)(=O)c1ccccc1 [compound 455],–,< 10,< 10,–
O=C(c1cnc2ccc(-c3ccc(Cl)c(NS(=O)(=O)c4ccccc4)c3)cn12)N1CCOCC1 [compound 459],–,< 1,< 1,–

# — patent publication US11547697B2, “Heterocyclic compounds and uses thereof” (MILLENNIUM PHARMACEUTICALS, INC., priority 2009, dated 2023)
